This test addresses SARS-CoV-2 Papain like protease (PLpro) (Severe acute respiratory syndrome coronavirus 2 (2019-nCoV) (SARS-CoV-2), UniProt P0DTD1). Nature of the test: Papain Like Protease (PLpro) biochemical assay with profluorogenic substrate Z-RLRGG-AMC. The settings on record: SARS-CoV-2 PLpro 6.25 nM, 25 μM Z-RLRGG-AMC substrate, 60 minute reaction; read-out: IC50.

As usually defined, the IC50 is the concentration that inhibits the measured activity by half.

For `Cc1ccccc1C(=O)NC(C)c1cc(NCC2CCCOC2)nc2ccccc12` (centres unmarked) [Example 140, 2-methyl-N-[1-(2-{[(oxan-3-yl)methyl]amino}quinolin-4-yl)ethyl]benzamide], the IC50 came to 1960 nM.

For the compound `Cc1ccccc1C(=O)NC(C)c1cc(NCC2CCOCC2)nc2ccccc12` (centres unmarked) [Example 141, 2-methyl-N-[1-(2-{[(oxan-4-yl)methyl]amino}quinolin-4-yl)ethyl]benzamide], the half-inhibitory concentration (IC50) was determined as 778 nM.

As for `Cc1ccccc1C(=O)NC(C)c1cc(NC2CCOC2)nc2ccccc12` (centres unmarked) [Example 142, 2-methyl-N-(1-{2-[(oxolan-3-yl)amino]quinolin-4-yl}ethyl)benzamide], the IC50 came to 900 nM.

`Cc1ccccc1C(=O)NC(C)c1cc(N(C)CCC(=O)N(C)C)nc2ccccc12` (centres unmarked) [Example 143, N-[1-(2-{[3-(dimethylamino)-3-oxopropyl](methyl)amino}-quinolin-4-yl)ethyl]-2-methylbenzamide]: the half-inhibitory concentration (IC50) was 8480 nM.

On to `Cc1ccccc1C(=O)NC(C)c1cc(NCC2CCS(=O)(=O)CC2)nc2ccccc12` (centres unmarked) [Example 144, N-(1-(2-(((1,1-dioxidotetrahydro-2H-thiopyran-4-yl)methyl)-amino)quinolin-4-yl)ethyl)-2-methylbenzamide], for which the IC50 was 1110 nM.

With `Cc1ccccc1C(=O)NC(C)c1cc(NC2(C#N)CC2)nc2ccccc12` (centres unmarked) [Example 145, N-(1-{2-[(1-cyanocyclopropyl)amino]quinolin-4-yl}ethyl)-2-methylbenzamide], the IC50 worked out at 2520 nM.

For `Cc1ccccc1C(=O)NC(C)c1cc(NCC(=O)N2CCOCC2)nc2ccccc12` (centres unmarked) [Example 146, 2-methyl-N-[1-(2-{[2-(morpholin-4-yl)-2-oxoethyl]amino}-quinolin-4-yl)ethyl]benzamide], the half-inhibitory concentration (IC50) amounted to 4500 nM.

For the compound `Cc1ccccc1C(=O)NC(C)c1cc(NC2CCCOC2)nc2ccccc12` (centres unmarked) [Example 147], the 50% inhibitory concentration (IC50) stood at 909 nM.

With `Cc1ccccc1C(=O)NC(C)c1cc(NCCS(=O)(=O)N(C)C)nc2ccccc12` (centres unmarked) [Example 148, N-[1-(2-{[2-(dimethylsulfamoyl)ethyl]amino}quinolin-4-yl)ethyl]-2-methylbenzamide], the IC50 was 1770 nM.

As to `CCN(CCOC)c1cc(C(C)NC(=O)c2ccccc2C)c2ccccc2n1` (centres unmarked) [Example 149, N-(1-{2-[ethyl(2-methoxyethyl)amino]quinolin-4-yl}ethyl)-2-methylbenzamide], the half-maximal inhibitory concentration (IC50) is 2170 nM.

As to `Cc1ccccc1C(=O)NC(C)c1cc(NCC2CCN(S(C)(=O)=O)CC2)nc2ccccc12` (centres unmarked) [Example 150], the 50% inhibitory concentration (IC50) was found to be 1070 nM.

As to `Cc1ccccc1C(=O)NC(C)c1cc(N2CCC(S(=O)(=O)N(C)C)CC2)nc2ccccc12` (centres unmarked) [Example 151, N-(1-{2-[4-(dimethylsulfamoyl)piperidin-1-yl]quinolin-4-yl}ethyl)-2-methylbenzamide], the IC50 came out at 1460 nM.

`Cc1cc(CC(=O)O)ccc1C(=O)N[C@H](C)c1cc(-c2cnn(C)c2)nc2ccccc12` [Example 200, (R)-2-(3-methyl-4-((1-(2-(1-methyl-1H-pyrazol-4-yl)quinolin-4-yl)ethyl)carbamoyl)phenyl)acetic acid]: the IC50 was 792 nM.

`Cc1cc(C(=O)NCc2cscn2)ccc1C(=O)N[C@H](C)c1cc(-c2cnn(C)c2)nc2ccccc12` [Example 201, (R)-2-methyl-N1-(1-(2-(1-methyl-1H-pyrazol-4-yl)quinolin-4-yl)ethyl)-N4-(thiazol-4-ylmethyl)terephthalamide]: the IC50 came to 3 nM.

In the case of `Cc1cc(C(=O)NC(C)c2cscn2)ccc1C(=O)N[C@H](C)c1cc(-c2cnn(C)c2)nc2ccccc12` (some centres unmarked) [Example 202], the half-maximal inhibitory concentration (IC50) came to 12 nM.

`Cc1cc(C(=O)NCc2ncsc2C)ccc1C(=O)N[C@H](C)c1cc(-c2cnn(C)c2)nc2ccccc12` [Example 203]: the half-maximal inhibitory concentration (IC50) is 2 nM.

As to `Cc1nc(CNC(=O)c2ccc(C(=O)N[C@H](C)c3cc(-c4cnn(C)c4)nc4ccccc34)c(C)c2)cs1` [Example 204], the IC50 is 73 nM.

In the case of `COc1c(-c2cnn(C)c2)cc(C(C)NC(=O)c2cc(CN)ccc2C)c2ccccc12` (centres unmarked) [Example 205], the IC50 came to 43 nM.

Consider `Cc1cc(CNCc2cscn2)ccc1C(=O)NC1(c2cc(-c3cnn(C)c3)nc3ccccc23)CC1` [Example 210], for which the IC50 was determined as 6 nM.

For `Cc1cc(C2(NC(=O)c3cscn3)CC2)ccc1C(=O)N[C@H](C)c1cc(-c2cnn(C)c2)nc2ccccc12` [Example 212, (R)-N-(1-(3-methyl-4-((1-(2-(1-methyl-1H-pyrazol-4-yl)quinolin-4-yl)ethyl)carbamoyl)phenyl)cyclopropyl)thiazole-4-carboxamide], the half-maximal inhibitory concentration (IC50) worked out at 58 nM.

As for `Cc1cc(C2(NC(=O)c3ncc[nH]3)CC2)ccc1C(=O)N[C@H](C)c1cc(-c2cnn(C)c2)nc2ccccc12` [Example 213, (R)-N-(1-(3-methyl-4-((1-(2-(1-methyl-1H-pyrazol-4-yl)quinolin-4-yl)ethyl)carbamoyl)phenyl)cyclopropyl)-1H-imidazole-2-carboxamide], the half-maximal inhibitory concentration (IC50) was found to be 219 nM.

Take `Cc1cc(C(C)(C)NC(=O)c2cscn2)ccc1C(=O)N[C@H](C)c1cc(-c2cnn(C)c2)nc2ccccc12` [Example 214, (R)-N-(2-(3-methyl-4-((1-(2-(1-methyl-1H-pyrazol-4-yl)quinolin-4-yl)ethyl)carbamoyl)phenyl)propan-2-yl)thiazole-4-carboxamide]: the IC50 came out at 169 nM.

In the case of `Cc1cc(C(C)(C)NC(=O)c2ncc[nH]2)ccc1C(=O)N[C@H](C)c1cc(-c2cnn(C)c2)nc2ccccc12` [Example 215, (R)-N-(2-(3-methyl-4-((1-(2-(1-methyl-1H-pyrazol-4-yl)quinolin-4-yl)ethyl)carbamoyl)phenyl)propan-2-yl)-1H-imidazole-2-carboxamide], the IC50 turned out to be 144 nM.

As for `Cc1ccc(N2CCN(C)CC2)cc1C(=O)NC(C)c1cc(-c2cc(C(=O)O)c[nH]2)cc2ccccc12` (centres unmarked) [Example 216, 5-(4-(1-(2-methyl-5-(4-methylpiperazin-1-yl)benzamido)ethyl)naphthalen-2-yl)-1H-pyrrole-3-carboxylic acid], the half-maximal inhibitory concentration (IC50) came out at 12 nM.

With `Cc1ccc(CN)cc1C(=O)NC(C)c1cc(-c2cnn(C)c2)c(O)c2ccccc12` (centres unmarked) [Example 217, 5-(aminomethyl)-N-(1-(4-hydroxy-3-(1-methyl-1H-pyrazol-4-yl)naphthalen-1-yl)ethyl)-2-methylbenzamide], the IC50 stood at 119 nM.

`C[C@@H](NC(=O)c1ccccc1CCC(=O)NNC(=O)[C@H]1O[C@@H]1C(=O)O)c1cc(-c2cnn(C)c2)nc2ccccc12` [Example 219, (2S,3S)-3-(2-(3-(2-(((R)-1-(2-(1-methyl-1H-pyrazol-4-yl)quinolin-4-yl)ethyl)carbamoyl)phenyl)propanoyl)hydrazine-1-carbonyl)oxirane-2-carboxylic acid]: the concentration for half-maximal inhibition (IC50) is 1 nM.

Take `COC(=O)[C@H]1O[C@@H]1C(=O)NNC(=O)CCc1ccccc1C(=O)N[C@H](C)c1cc(-c2cnn(C)c2)nc2ccccc12` [Example 220, methyl(2S,3S)-3-(2-(3-(2-(((R)-1-(2-(1-methyl-1H-pyrazol-4-yl)quinolin-4-yl)ethyl)carbamoyl)phenyl)propanoyl)hydrazine-1-carbonyl)oxirane-2-carboxylate]: the IC50 amounted to 2 nM.

In the case of `Cc1cc(CNCc2cncn2C)ccc1C(=O)N[C@H](C)c1cc(-c2cnn(C)c2)nc2ccccc12` [Example 221, (R)-2-methyl-4-((((1-methyl-1H-imidazol-5-yl)methyl)amino)methyl)-N-(1-(2-(1-methyl-1H-pyrazol-4-yl)quinolin-4-yl)ethyl)benzamide], the IC50 is 15 nM.

As to `CO/C=C/C(=O)NNC(=O)CCc1ccccc1C(=O)N[C@H](C)c1cc(-c2cnn(C)c2)nc2ccccc12` [Example 222, (R,E)-2-(3-(2-(3-methoxyacryloyl)hydrazineyl)-3-oxopropyl)-N-(1-(2-(1-methyl-1H-pyrazol-4-yl)quinolin-4-yl)ethyl)benzamide], the IC50 turned out to be 1980 nM.

Take `CNC(=O)/C=C/C(=O)NNC(=O)CCc1ccccc1C(=O)N[C@H](C)c1cc(-c2cnn(C)c2)nc2ccccc12` [Example 223, (R,E)-N-(1-(2-(1-methyl-1H-pyrazol-4-yl)quinolin-4-yl)ethyl)-2-(3-(2-(4-(methylamino)-4-oxobut-2-enoyl)hydrazineyl)-3-oxopropyl)benzamide]: the IC50 amounted to 58 nM.

As to `C[C@@H](NC(=O)c1ccccc1CCC(=O)NNC(=O)/C=C/C(N)=O)c1cc(-c2cnn(C)c2)nc2ccccc12` [Example 224, (R,E)-2-(3-(2-(4-amino-4-oxobut-2-enoyl)hydrazineyl)-3-oxopropyl)-N-(1-(2-(1-methyl-1H-pyrazol-4-yl)quinolin-4-yl)ethyl)benzamide], the IC50 worked out at 6 nM.

Take `COC(=O)/C=C/C(=O)NNC(=O)CCc1ccccc1C(=O)NC1(c2cc(-c3cnn(C)c3)nc3ccccc23)CC1` [Example 225, methyl (E)-4-(2-(3-(2-((1-(2-(1-methyl-1H-pyrazol-4-yl)quinolin-4-yl)cyclopropyl)carbamoyl)phenyl)propanoyl)hydrazineyl)-4-oxobut-2-enoate]: the IC50 turned out to be 6 nM.

Turning to `Cn1cc(-c2cc(C3(NC(=O)c4ccccc4CCC(=O)NNC(=O)/C=C/C(N)=O)CC3)c3ccccc3n2)cn1` [Example 226, (E)-2-(3-(2-(4-amino-4-oxobut-2-enoyl)hydrazineyl)-3-oxopropyl)-N-(1-(2-(1-methyl-1H-pyrazol-4-yl)quinolin-4-yl)cyclopropyl)benzamide], the IC50 was 17 nM.

As to `CCOC(=O)[C@H]1O[C@@H]1C(=O)NNC(=O)CCc1ccccc1C(=O)N[C@H](C)c1cc(-c2cnn(C)c2)nc2ccccc12` [Example 227, ethyl (2S,3S)-3-(2-(3-(2-(((R)-1-(2-(1-methyl-1H-pyrazol-4-yl)quinolin-4-yl)ethyl)carbamoyl)phenyl)propanoyl)hydrazine-1-carbonyl)oxirane-2-carboxylate], the IC50 worked out at 2 nM.

As to `COC(=O)c1c[nH]c(-c2cc(C(C)NC(=O)c3cc(N4CCN(C)CC4)ccc3C)c3ccccc3c2)c1` (centres unmarked) [Example 228, methyl 5-(4-(1-(2-methyl-5-(4-methylpiperazin-1-yl)benzamido)ethyl)naphthalen-2-yl)-1H-pyrrole-3-carboxylate], the half-inhibitory concentration (IC50) worked out at 7 nM.

Values taken from patent publication US20240245673A1, “Papain-like protease (PLpro) inhibitors” (Pfizer Inc., priority 2022, published 2024).
